According to PubChem BioAssay (NCI):
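96-well plates; 48 h exposure; 5 concentrations. Endpoints by linear interpolation between flanking doses. Not reached: highest tested concentration assigned. Abbreviation: GI50, concentration required for 50% inhibition of growth. TGI marks complete inhibition of growth.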

Key:
Experiment in all cases: inhibition of tumour cell growth, NCI panel, 48 h
SF-268 CNS = system: SF-268 CNS
CAKI-1 renal = system: CAKI-1 renal
OVCAR-8 ovarian = system: OVCAR-8 ovarian
OVCAR-5 ovarian = system: OVCAR-5 ovarian
HOP-92 NSCLC = system: HOP-92 NSCLC
TK-10 renal = system: TK-10 renal
SR leukemia = system: SR leukemia
NCI-H522 lung = system: NCI-H522 lung
786-0 renal = system: 786-0 renal
BT-549 breast = system: BT-549 breast

| Structure (SMILES) | TGI (SF-268 CNS) [µM] | TGI (CAKI-1 renal) [µM] | TGI (OVCAR-8 ovarian) [µM] | TGI (OVCAR-5 ovarian) [µM] | TGI (HOP-92 NSCLC) [µM] | TGI (TK-10 renal) [µM] | TGI (SR leukemia) [µM] | TGI (NCI-H522 lung) [µM] | TGI (786-0 renal) [µM] | GI50 (SF-268 CNS) [nM] | GI50 (CAKI-1 renal) [nM] | GI50 (OVCAR-8 ovarian) [nM] | GI50 (BT-549 breast) [nM] | TGI (BT-549 breast) [µM] | GI50 (OVCAR-5 ovarian) [µM] | GI50 (TK-10 renal) [µM] | GI50 (SR leukemia) [nM] | GI50 (NCI-H522 lung) [nM] | GI50 (786-0 renal) [nM] | GI50 (HOP-92 NSCLC) [nM] |
| --- | --- | --- | --- | --- | --- | --- | --- | --- | --- | --- | --- | --- | --- | --- | --- | --- | --- | --- | --- | --- |
| COc1ccc(/C=c2/sc3n(c2=O)NC2(CCC(C)CC2)NN=3)cc1 (stereo not given) | > 100 | > 100 | > 100 | > 100 | > 100 | > 100 | > 100 | > 100 | > 100 |  |  |  |  |  |  |  |  |  |  |  |
| O=C1Nc2ccccc2/C1=C\c1nc(C2CCN(S(=O)(=O)c3ccc(F)cc3)CC2)n2ccccc12 | 13.8 | > 100 | 6.77 | > 100 |  | 8.62 | > 100 | 12 | 6.71 | 1900 | 1730 | 1390 | 1850 | 8.48 | 5.16 | 2.41 | > 100000 | 1940 | 2370 |  |
| CCCNC(=O)c1ccc(Cl)cc1Cl | > 100 | > 100 | > 100 | > 100 | > 100 | > 100 | > 100 |  | > 100 | > 100000 | > 100000 | > 100000 | > 100000 | > 100 | > 100 | > 100 | > 100000 |  | > 100000 | > 100000 |
| COc1ccc(/C(Cl)=C(\c2ccc(OCCN(C)C)cc2)c2ccc(OC(=O)C(C)(C)C)cc2)cc1 | 28.2 | 27.8 | 30.4 | 29.1 | 34 | 32.3 | 21.8 | 28.6 | 22.6 |  |  |  |  |  |  |  |  |  |  |  |
| COCCN1CCN(Cc2ccc(-c3n[nH]c4c3C(=O)c3c(NC(=O)NN5CCOCC5)cccc3-4)cc2)CC1 |  | > 10 |  | > 4.7 |  | 0.422 | 0.0599 | 0.0736 | > 10 | 31.8 | 27.7 | 30.9 | 30.8 | 0.209 | 0.0212 | 0.0199 | 9.85 | 19.4 | 33.6 |  |
| CSc1nc(NC2OC(COC(C)=O)C(OC(C)=O)C(OC(C)=O)C2OC(C)=O)c(-c2csc(N)n2)c(=O)n1C (stereo not given) | > 100 | > 100 | 86.9 | > 100 | 63.1 | > 100 | > 100 | > 100 | 39.4 |  |  |  |  |  |  |  |  |  |  |  |
| COc1ccc2c(c1)[n+]([O-])c(-c1ccc(C)cc1)c(N)[n+]2[O-] |  | > 100 | > 100 | > 100 | > 100 |  | > 100 | 30.3 | > 100 |  |  |  |  |  |  |  |  |  |  |  |
| COc1ccc2c(c1)CC1c3c(ccc(OC)c3O)CC2N1C (stereo not given) | > 100 | > 100 | > 81.3 | > 100 | 70.9 | > 100 | 45.4 | 37.9 | > 73.3 |  |  |  |  |  |  |  |  |  |  |  |
| COc1ccc(/C=C2\CN(Cc3cn(CCNc4ccnc5cc(Cl)ccc45)nn3)C/C(=C\c3ccc(OC)c(OC)c3)C2=O)cc1OC | 21.5 | > 100 | > 100 | 21.5 |  | 22 | > 100 | 6.38 | 12.4 | 3360 | 7220 | 3940 | 2160 | 4.84 | 4.55 | 4.96 | 2040 | 2240 | 3350 |  |
| CC1(C)C=N[N+]2(C)C3C=CC(CC3)C12 (stereo not given) | > 100 | > 100 | > 100 | > 100 | > 100 | > 100 | > 100 | > 100 | > 100 |  |  |  |  |  |  |  |  |  |  |  |
| COc1c(-c2ccc(O)c(O)c2)oc2c(O)c(O)cc(O)c2c1=O |  | > 100 | > 100 | > 100 | > 100 | > 100 | 50.8 | > 100 | > 100 |  |  |  |  | > 100 |  |  |  |  |  |  |
| CC1=C(Cl)C=CP(=O)(OC(C)C)C1 (stereo not given) | > 100 |  | > 100 | > 100 | > 100 | > 100 | > 100 | 87.7 | > 100 |  |  |  |  |  |  |  |  |  |  |  |
| CN1CCN(Cc2ccc(NC(=O)c3cncc(C#Cc4cncc5nccnc45)c3)cc2C(F)(F)F)CC1 | 16.6 | 9.09 | 24.1 | 32.8 |  | 12.8 | 28.5 | 10.8 | 12.5 | 5220 | 2180 | 3710 | 5270 | 11.2 | 2.15 | 5.34 | 2980 | 3170 | 5310 |  |
| CCCCNC(=O)Oc1ccc(/C(=C(/C)Cc2ccc(OC)cc2)c2ccc(OCCN3CCCC3)cc2)cc1 | 4.4 | 3.5 | 4.38 | 12.7 |  | 17.8 | 5.44 | 4.05 | 2.91 | 1980 | 1630 | 2040 | 1520 | 2.98 | 3.6 | 4.31 | 1860 | 2020 | 1510 |  |
| CC(/C=C/c1ccccc1)=N\NC(N)=S | > 100 | > 100 | > 100 | > 100 | > 100 | > 100 | 65.3 |  | > 100 |  |  |  |  | > 100 |  |  |  |  |  |  |
| NCCOc1ccccc1/C=C1\c2ccccc2-c2ccc([N+](=O)[O-])cc21 | 3.15 | 2.72 | 3.33 | 3.06 | 2.75 |  |  | 3.05 | 3.23 | 1580 | 1380 | 1530 | 1500 | 2.84 | 1.61 |  |  | 1490 | 1700 | 1330 |
| Clc1ccc2nc(-c3ccccc3)nc(Cl)c2c1 | > 100 | 54.9 | > 100 | > 100 | 50.3 | 63.9 | > 100 |  | > 100 |  |  |  |  |  |  |  |  |  |  |  |
| CCCCN(CCCC)CCC(O)c1cc2c(Cl)cc(Cl)cc2c2cc(C(F)(F)F)ccc12 (stereo not given) | 24.4 | 29.3 | 27.5 | 26 | 10.6 | 27.6 | 28.9 | 32.9 | 25.7 |  |  |  |  |  |  |  |  |  |  |  |
| CCCCN[C@H]1C2C3CC4C5CC(C42)C1(C)C53 (stereo not given in full) | > 100 | > 100 |  | > 100 | > 100 | > 100 | > 100 | > 100 | > 100 |  |  |  |  |  |  |  |  |  |  |  |
